Counter-ions that a name gives are not always drawn. Activity calls are given as the source filed them. No cut-off for these calls is given here.

Our source for the Activity and EC50 values is ChEMBL document CHEMBL4842323, “Aromatic Polyketides and Hydroxamate Siderophores from a Marine-Algae-Derived Streptomyces Species” (J Nat Prod, 2021).

Test [1] deals with Staphylococcus aureus. Description: Antibacterial activity against methicillin-resistant Staphylococcus aureus subsp. aureus ATCC43300 assessed as inhibition of bacterial growth incubated for 12 hrs by agar dilution method. It counts as functional, organism-based. (In general: In agar dilution the substance is mixed into plates at graded concentrations.)
The next test relates to Nakaseomyces glabratus. As to the kind of experiment: Antifungal activity against Candida glabrata ATCC2001 assessed as inhibition of fungal growth incubated for 12 hrs by agar dilution method. It counts as functional, organism-based.
The next test relates to B16. As to the kind of experiment: Cytotoxicity against mouse B16 cells assessed as reduction in cell viability incubated for 72 hrs by MTT assay. It is filed as functional, cell-based.
Test [2] concerns Staphylococcus aureus. As to the kind of experiment: Antibacterial activity against Staphylococcus aureus ATCC6538 assessed as inhibition of bacterial growth incubated for 12 hrs by agar dilution method. It counts as functional, organism-based.
A short description of test [3]: Binding affinity to Fe3+ assessed as compound-Fe3+ complex formation incubated for 3 hrs by Chrome Azurol S assay.
A further test concerns Candida albicans. As to the kind of experiment: Antifungal activity against Candida albicans ATCC10231 assessed as inhibition of fungal growth incubated for 12 hrs by agar dilution method. It is filed as functional, organism-based.
The test system of the next test is Escherichia coli. As to the kind of experiment: Antibacterial activity against Escherichia coli ATCC11775 assessed as inhibition of bacterial growth incubated for 12 hrs by agar dilution method. It is filed as functional, organism-based.
Another test relates to Pseudomonas aeruginosa. Description: Antibacterial activity against Pseudomonas aeruginosa ATCC10145 assessed as inhibition of bacterial growth incubated for 12 hrs by agar dilution method. It counts as functional, organism-based.

On to `CC(=O)N(O)CCCCCNC(=O)CCC(=O)N(O)CCCCCNC(=O)/C=C/c1ccccc1`, for which the result in the test on Staphylococcus aureus [1], in the test on Nakaseomyces glabratus, in the test with B16, in the test on Staphylococcus aureus [2], in the test on Candida albicans and with Escherichia coli was inactive. Also, the result with Pseudomonas aeruginosa was inactive. The EC50 in test [3] was determined as 39.1 µM.
`CC(=O)N(O)CCCCCNC(=O)CCC(=O)N(O)CCCCCNC(=O)CCc1ccccc1`: the outcome in the test on Staphylococcus aureus [1], in the test with Nakaseomyces glabratus, in the test on B16, in the test with Staphylococcus aureus [2], in the test on Candida albicans and with Escherichia coli was inactive. Moreover, the result in the test with Pseudomonas aeruginosa was inactive. Moreover, the EC50 in test [3] was 12.9 µM.
Regarding `CC(=O)N(O)CCCCCNC(=O)CCC(=O)N(O)CCCCCNC(=O)CCC(=O)N(O)CCCCCN` [DEFEROXAMINE MESYLATE], the EC50 in test [3] was 20.2 µM.
Turning to `O=C1CCC(=O)N(O)CCCCCNC(=O)CCC(=O)N(O)CCCCCNC(=O)CCC(=O)N(O)CCCCCN1` [NOCARDAMINE], the result in the test on Staphylococcus aureus [1], with Nakaseomyces glabratus, with B16, in the test on Staphylococcus aureus [2], in the test on Candida albicans and with Escherichia coli was inactive. Moreover, the result in the test with Pseudomonas aeruginosa was inactive. Moreover, the EC50 in test [3] turned out to be 22.4 µM.
Turning to `COc1cc(Cc2cccc(O)c2)oc(=O)c1`, the outcome with Staphylococcus aureus [1], in the test on Nakaseomyces glabratus, with B16, with Staphylococcus aureus [2], in the test with Candida albicans and with Escherichia coli was inactive. The outcome in the test with Pseudomonas aeruginosa was inactive.
Consider `COc1cc(-c2c(O)cccc2-c2ccccc2)oc(=O)c1`, for which the outcome in the test on Staphylococcus aureus [1], with Nakaseomyces glabratus, in the test on B16, with Staphylococcus aureus [2], in the test with Candida albicans and in the test with Escherichia coli was inactive. In addition, the result with Pseudomonas aeruginosa was inactive.
`COc1cc([C@@H]2c3cccc(O)c3C(=O)C[C@@]2(O)Cc2ccccc2)oc(=O)c1`: the outcome in the test on Staphylococcus aureus [1], in the test on Nakaseomyces glabratus, with B16, with Staphylococcus aureus [2], in the test on Candida albicans and in the test with Escherichia coli was inactive. Also, the result in the test with Pseudomonas aeruginosa was inactive.
`COc1cc(Cc2cccc(O)c2C(=O)c2ccccc2)oc(=O)c1`: the result with Staphylococcus aureus [1], with Nakaseomyces glabratus, in the test on B16, in the test with Staphylococcus aureus [2], in the test with Candida albicans and in the test with Escherichia coli was inactive. The result in the test with Pseudomonas aeruginosa was inactive.

By EC50 is commonly meant the concentration giving half of the maximal effect.
